Laboratory results reported in patent US7928063B2, “Analogs of human growth hormone-releasing hormone, their preparation and use” (Instytut Farmaceutyczny, priority 2001, dated 2011).
Read-outs that look alike come from different tables or passages of the source. Square brackets hold non-standard residues; d marks the D form. Peptide text beside a SMILES is read from it. * marks the point of attachment. Desaminotyrosyl = O=C(CCc1ccc(O)cc1)*; hArg = N=C(N)NCCCC[C@H](N)C(=O)O; Agp = N=C(N)NC[C@H](N)C(=O)O; Nle = CCCC[C@H](N)C(=O)O

Legend:
[1] = test system: GH release; test: Effect of subcutaneous administration on GH release (plasma GH by RIA) in male rats; type: in vivo, rat; settings: for Relative potency compared with hGH-RH-(1-29)—NH2: at 15 minutes after the injection; for Plasma GH at various times after injection, 15 min. / Plasma GH at various times after injection, 30 min. / Plasma GH at various times after injection, 0 min.: male rats, mean ± SEM; for Plasma GH at various times after injection, 0 min.: sample 1 minute before injection; for Net GH concentration Δ(15 − 30): GH at 15 min. minus GH at 30 min.; for Net GH concentration Δ(15 − 0): GH at 15 min. minus GH before injection
[2] = test system: trypsin; test: Trypsin digestion test (enzymatic resistance, HPLC); type: in vitro ADME; settings: for Resistance to trypsin digestion (in words): after 30 minutes
Description: The compounds prepared were also tested for enzymatic resistance in the trypsin digestion test. […] Subsequently, a trypsin solution was added (100 μl; 0.02 mg/ml; Serva, 36 U/mg). […] An aliquot (500 μl) was withdrawn and diluted with 0.5 M acetic acid (1 ml), then lyophilized. The material obtained was analyzed by HPLC, using a Knauer system with an Eurospher 100 C18 (4.6×250 mm, 5 micron) column. The following solvent systems were used: A, 0.1% TFA in water; […]

[3] = isolated enzyme trypsin, trypsin, pH 8.5, 37° C., digestion time 30 min., read-out: % Unchanged compound
[4] = isolated enzyme trypsin, trypsin, pH 8.5, 37° C., digestion time 60 min., read-out: % Unchanged compound
[5] = isolated enzyme trypsin, pH 8.5

`CCCC[C@H](NC(=O)[C@@H](NC(=O)[C@H](CC(=O)O)NC(=O)[C@H](CCC(N)=O)NC(=O)[C@H](CC(C)C)NC(=O)[C@H](CC(C)C)NC(=O)[C@H](CCCCNC(=N)N)NC(=O)[C@H](CCCCNC(=N)N)NC(=O)[C@H](C)NC(=O)[C@H](CO)NC(=O)[C@H](CC(C)C)NC(=O)[C@H](CCC(N)=O)NC(=O)[C@H](C)NC(=O)[C@H](CC(C)C)NC(=O)[C@@H](NC(=O)[C@H](CCCCNC(=N)N)NC(=O)[C@H](CCCCNC(=N)N)NC(=O)[C@H](Cc1ccc(O)cc1)NC(=O)[C@H](CO)NC(=O)[C@H](CC(N)=O)NC(=O)[C@@H](NC(=O)[C@H](Cc1ccccc1)NC(=O)[C@@H](NC(=O)[C@H](C)NC(=O)[C@H](CC(=O)O)NC(=O)[C@H](C)NC(=O)CCc1ccc(O)cc1)[C@@H](C)CC)[C@@H](C)O)C(C)C)[C@@H](C)CC)C(=O)N[C@@H](CC(=O)O)C(=O)N[C@@H](CCCCNC(=N)N)C(N)=O` [Compound 1, Dat-Ala-Asp-Ala-Ile-Phe-Thr-Asn-Ser-Tyr^10-hArg-hArg-Val-Leu-Ala-Gln-Leu-Ser-Ala-hArg^20-hArg-Leu-Leu-Gln-Asp-Ile-Nle-Asp-hArg^29-NH2] (Desaminotyrosyl-ADAIFTNSY[hArg][hArg]VLAQLSA[hArg][hArg]LLQDI[Nle]D[hArg]-NH2) was tested, and the “Relative potency compared with hGH-RH-(1-29)—NH2” value ([1]; dose 1.0 μg/kg vs 50 μg/kg of hGH-RH-(1-29)—NH2) was 70 times higher, the “Relative potency compared with hGH-RH-(1-29)—NH2” value ([1]; dose 3.0 μg/kg vs 150 μg/kg of hGH-RH-(1-29)—NH2) was 38 times higher and the Plasma GH at various times after injection, 15 min. ([1]; sc., dose 1 μg/kg) was 99.1 ± 16 ng/mL. It also gave a Plasma GH at various times after injection, 30 min. ([1]; sc., dose 1 μg/kg) of 42.5 ± 9.2 ng/mL, a Plasma GH at various times after injection, 0 min. ([1]; sc., dose 1 μg/kg) of 23.1 ± 2 ng/mL and a Plasma GH at various times after injection, 15 min. ([1]; sc., dose 3 μg/kg) of 130 ± 16 ng/mL. The Plasma GH at various times after injection, 30 min. ([1]; sc., dose 3 μg/kg) was 58.4 ± 8.9 ng/mL, the Plasma GH at various times after injection, 0 min. ([1]; sc., dose 3 μg/kg) was 28.3 ± 4.1 ng/mL and the “Effect on GH release in rats, compared with saline control (in words)” value ([1]; rats, sc.) was “strongest stimulating effect”. The “Net GH concentration Δ(15 − 30)” value ([1]; rats, sc., dose 1 μg/kg) was 56.5 ± 14.7 ng/mL, the “Net GH concentration Δ(15 − 0)” value ([1]; rats, sc., dose 1 μg/kg) was 75.9 ± 16.0 ng/mL and the “Net GH concentration Δ(15 − 30)” value ([1]; rats, sc., dose 3 μg/kg) was 72.0 ± 12.6 ng/mL. The “Net GH concentration Δ(15 − 0)” value ([1]; rats, sc., dose 3 μg/kg) was 102 ± 12.6 ng/mL, the “Resistance to trypsin digestion (in words)” value (“Resistance” below) [2] was “unchanged” and the remaining at 0.5 h, 0.4 mg/ml [2, 3] was > 99%. For the same compound, the remaining at 1 h, 0.4 mg/ml [2, 4] was > 99%.
`CCCC[C@H](NC(=O)[C@@H](NC(=O)[C@H](CC(=O)O)NC(=O)[C@H](CCC(N)=O)NC(=O)[C@H](CC(C)C)NC(=O)[C@H](CC(C)C)NC(=O)[C@H](CNC(=N)N)NC(=O)[C@H](CNC(=N)N)NC(=O)[C@H](C)NC(=O)[C@H](CO)NC(=O)[C@H](CC(C)C)NC(=O)[C@H](CCC(N)=O)NC(=O)[C@H](C)NC(=O)[C@H](CC(C)C)NC(=O)[C@@H](NC(=O)[C@H](CNC(=N)N)NC(=O)[C@H](CNC(=N)N)NC(=O)[C@H](Cc1ccc(O)cc1)NC(=O)[C@H](CO)NC(=O)[C@H](CC(N)=O)NC(=O)[C@@H](NC(=O)[C@H](Cc1ccccc1)NC(=O)[C@@H](NC(=O)[C@H](C)NC(=O)[C@H](CC(=O)O)NC(=O)[C@H](C)NC(=O)CCc1ccc(O)cc1)[C@@H](C)CC)[C@@H](C)O)C(C)C)[C@@H](C)CC)C(=O)N[C@@H](CC(=O)O)C(=O)N[C@@H](CNC(=N)N)C(N)=O` [Compound 7, Dat-Ala-Asp-Ala-Ile-Phe-Thr-Asn-Ser-Tyr^10-Gap-Gap-Val-Leu-Ala-Gln-Leu-Ser-Ala-Gap-Gap-Leu-Leu-Gln-Asp-Ile-Nle-Asp-Gap-NH2] (Desaminotyrosyl-ADAIFTNSY[Agp][Agp]VLAQLSA[Agp][Agp]LLQDI[Nle]D[Agp]-NH2) gave a remaining at 0.5 h, 0.4 mg/ml [2, 5] of 75% and a remaining at 1 h, 0.4 mg/ml [2, 5] of 68%.
For `CCCC[C@H](NC(=O)[C@@H](NC(=O)[C@H](CC(=O)O)NC(=O)[C@H](CCC(N)=O)NC(=O)[C@H](CC(C)C)NC(=O)[C@H](CC(C)C)NC(=O)[C@H](CNC(=N)N)NC(=O)[C@H](CCCCNC(=N)N)NC(=O)[C@H](C)NC(=O)[C@H](CO)NC(=O)[C@H](CC(C)C)NC(=O)[C@H](CCC(N)=O)NC(=O)[C@H](C)NC(=O)[C@H](CC(C)C)NC(=O)[C@@H](NC(=O)[C@H](CNC(=N)N)NC(=O)[C@H](CNC(=N)N)NC(=O)[C@H](Cc1ccc(O)cc1)NC(=O)[C@H](CO)NC(=O)[C@H](CC(N)=O)NC(=O)[C@@H](NC(=O)[C@H](Cc1ccccc1)NC(=O)[C@@H](NC(=O)[C@H](C)NC(=O)[C@H](CC(=O)O)NC(=O)[C@H](C)NC(=O)CCc1ccc(O)cc1)[C@@H](C)CC)[C@@H](C)O)C(C)C)[C@@H](C)CC)C(=O)N[C@@H](CC(=O)O)C(=O)N[C@@H](CNC(=N)N)C(N)=O` [Compound 8, Dat-Ala-Asp-Ala-Ile-Phe-Thr-Asn-Ser-Tyr^10-Gap-Gap-Val-Leu-Ala-Gln-Leu-Ser-Ala-hArg-Gap-Leu-Leu-Gln-Asp-Ile-Nle-Asp-Gap-NH2] (Desaminotyrosyl-ADAIFTNSY[Agp][Agp]VLAQLSA[hArg][Agp]LLQDI[Nle]D[Agp]-NH2), the “Resistance” value [2] was “unchanged”, the remaining at 0.5 h, 0.4 mg/ml [2, 3] was > 99% and the remaining at 1 h, 0.4 mg/ml [2, 4] was > 99%.
In the case of `CC[C@H](C)[C@H](NC(=O)[C@H](C)NC(=O)[C@H](CC(=O)O)NC(=O)[C@H](C)NC(=O)[C@@H](N)Cc1ccc(O)cc1)C(=O)N[C@@H](Cc1ccccc1)C(=O)N[C@H](C(=O)N[C@@H](CC(N)=O)C(=O)N[C@@H](CO)C(=O)N[C@@H](Cc1ccc(O)cc1)C(=O)N[C@@H](CCCNC(=N)N)C(=O)N[C@@H](CCCCN)C(=O)N[C@H](C(=O)N[C@@H](CC(C)C)C(=O)NCC(=O)N[C@@H](CCC(N)=O)C(=O)N[C@@H](CC(C)C)C(=O)N[C@@H](CO)C(=O)N[C@@H](C)C(=O)N[C@@H](CCCNC(=N)N)C(=O)N[C@@H](CCCCN)C(=O)N[C@@H](CC(C)C)C(=O)N[C@@H](CC(C)C)C(=O)N[C@@H](CCC(N)=O)C(=O)N[C@@H](CC(=O)O)C(=O)N[C@H](C(=O)N[C@@H](CCSC)C(=O)N[C@@H](CO)C(=O)N[C@@H](CCCNC(=N)N)C(N)=O)[C@@H](C)CC)C(C)C)[C@@H](C)O` [hGH-RH(1-29)-NH2, reference compound], the “Resistance” value [2] is reported as “complete digestion”, the remaining at 0.5 h, 0.4 mg/ml ([2]; trypsin solution (Serva, 36 U/mg), trypsin, pH 8.5, 37° C., digestion time 30 min., read-out: % Unchanged compound) is reported as 0% and the remaining at 1 h, 0.4 mg/ml ([2]; trypsin solution (Serva, 36 U/mg), trypsin, pH 8.5, 37° C., digestion time 60 min., read-out: % Unchanged compound) is reported as 0%.
